In patent US10799484B2, “Compositions and methods for treating synucleinopathies” (priority 2017, dated 2020):
Read-outs that look alike come from different tables or passages of the source.

Experiments:
[1] = molecular target: human wild-type alpha-synuclein (Homo sapiens, UniProt P37840); conditions: in vitro; by H2O2 plus cytochrome c; cited from earlier work
[2] = test system: dopaminergic neurons in a mouse PD model; conditions: cited from earlier work
[3] = test system: human neuroblastoma SH-SY5Y cells; conditions: cited from earlier work
humans = conditions: for MTD-1 (Pramipexole alone): Period 1
Protocol: The ability of the 5HT3-antagonists to prevent the gastro-intestinal (GI) adverse effects (AEs) of pramipexole in humans was tested.
A Phase I study was conducted in subjects receiving a single oral dose of pramipexole dihydrochloride monohydrate (“pramipexole”) with or without a single oral dose of ondansetron hydrochloride dihydrate (“ondansetron”). The study was single center, single-blind study.
Following enrollment in the study, participants received single increasing oral doses of pramipexole given once daily in the morning (Period 1 of the study). The starting dose of pramipexole was 0.5 mg and the dose was increased daily by 0.5 mg increments. Once a subject had reached his/her first intolerable dose (FID-1), upward dose escalation was discontinued.
When a subject reached FID-1 on pramipexole alone, the subject was washed out for at least 5 days, and then entered Period 2 of the study during which the subject received single daily oral doses of pramipexole starting at 0.5 mg and titrated upward by 0.5 mg increments, together with oral ondansetron hydrochloride dihydrate (10 mg, equivalent to 8 mg ondansetron base) until subjects again reached an intolerable dose defined as above. The FID on oral pramipexole plus oral ondansetron was referred to as FID-2.
If a subject reached FID-2 during Period 2 at the same or lower dose than FID-1, and providing the investigator judged there were no safety issues and the subject was consenting, the subject received the same dose of pramipexole as the FID-2 dose together with a higher dose of oral ondansetron hydrochloride dihydrate (20 mg, equivalent to 16 mg ondansetron base) on the next day and the protocol specified that said subject should continue with the remainder of the dose titration with the higher dose of oral ondansetron hydrochloride dihydrate (20 mg, equivalent to 16 mg ondansetron base) until they reach the intolerable dose (FID2+). All other provisions of the protocol remained unchanged. Assessments were the same as those planned for the dose escalation day.
On each study day, subjects were followed up for up to 8 hours following drug administration for AEs, vital signs, ECGs. In addition, a laboratory panel was taken at screening and at the end of the study.

PD patients = conditions: doses approved for motor symptoms of PD; 535 PD patients; cited from earlier work
[4] = molecular target: synuclein oligomer formation (Homo sapiens, UniProt P37840); conditions: in vitro; cited from earlier work
patients = conditions: 5 mg/day, cited from earlier work

Compound: CCCN[C@H]1CCc2nc(N)sc2C1 [Pramipexole, (S)-6-propylamino-4,5,6,7-tetrahydro-1,3-benzothiazole-2-amine]
- oligomerization of human wild-type alpha-synuclein [1]: decreases
- toxic effects of rotenone on dopaminergic neurons [2]: inhibits
- immunoreactivity for alpha-synuclein ([2]; rotenone): reducing
- aggregation of alpha-synuclein [3]: inhibit
- dose limiting toxicity (humans; in vivo): gastro-intestinal adverse events
- MTD-1 (Pramipexole alone) (humans; subject 1001): 2.0 mg
- MTD-1 (Pramipexole alone) (humans; subject 1005): 1.5 mg
- MTD-1 (Pramipexole alone) (humans; subject 1006, cell wraps: NA (not tolerated at 0.5 mg), the starting dose): NA (not tolerated at
- MTD-1 (Pramipexole alone) (humans; subject 1007): 4.0 mg
- MTD-1 (Pramipexole alone) (humans; subject 1008): 1.0 mg
- neuroprotective (disease modifying) activity (PD patients): failed to evidence
- synuclein oligomer formation [4]: diminishes
- patients with nausea (patients): 76%
- patients with vomiting (patients): 39%
- patients not able to complete the study (patients; presumably because of intolerable GI adverse events): 36%
